Marks after values point to notes of the source that are not given here.
Tests used:
resting platelets = experiment: Platelet aggregation induced by peptide in resting washed platelets (activation); type: cell-based, human (healthy volunteers); conditions: for Activation, donor 20 08 13: replicate 20_08_13; for Activation, donor 20 08 13 / Activation, donor 22_08_13_DONOR1 / Activation, donor 22_08_13_DONOR2 / Activation, donor 14 06 13 / Activation, donor 18_06_13 / Activation, donor 20_06_13: SDC4 peptides and controls, 20 μM; for Activation, donor 20 08 13 / Activation, 5μM / Activation, 20μM / Activation / Activation, donor 14 06 13: unit assumed; for Activation, donor 22_08_13_DONOR1: replicate 22_08_13_DONOR1; for Activation, donor 22_08_13_DONOR2: replicate 22_08_13_DONOR2; for Activation, 5μM / Activation, 20μM: S3 Table, n=3; for Activation, 5μM: peptide 5 μM; for Activation, 20μM: peptide 20 μM; for Activation: platelet aggregation in resting platelets after 6 minutes incubation with peptide, pal-peptides 20 μM, tat-peptides 50 μM, optical density, aggregometer, mean, n>=3; for Activation, donor 14 06 13: replicate 14_06_13; for Activation, donor 18_06_13: replicate 18_06_13; for Activation, donor 18_06_13 / Activation, donor 20_06_13: in % (unit assumed); for Activation, donor 20_06_13: replicate 20_06_13; for Aggregation before TRAP activation, donor h: replicate donor h; for Aggregation before TRAP activation, donor h / Aggregation before TRAP activation, donor i / Aggregation before TRAP activation, donor j: pal 20 μM, tat 50 μM; for Aggregation before TRAP activation, donor i: replicate donor i; for Aggregation before TRAP activation, donor j: replicate donor j
Experimental: (§1) Blood was drawn from healthy volunteers into a syringe containing a final volume of 15% Acid Citrate Dextrose (ACD). The blood/ACD mixture was then aliquoted into 15 ml Cellstar tubes, at volumes of 5ml per tube, and centrifuged at 150 rcf for 10 minutes to obtain platelet rich plasma (PRP). PRP was then transferred to a 50ml tube using a pipette. The pH was then adjusted to 6.5. Prostaglandin (PGE1) was then added with a final concentration of 1μM. The PRP was then centrifuged at 750 rcf. After centrifugation the platelet poor plasma (PPP) was discarded and the pellet was resuspended in buffer A (6 mM dextrose, 130 mM NaCl, 9 mM NaHCO3, 10 mM sodium citrate, 10 mM Tris base, 3 mM KCl, 0.81 mM KH2PO4 and 0.9 mM MgCl26H2O, pH 7.4). A platelet concentration of 3x10^5/μl or 1x10^6/μl was obtained by dilution depending on the experiment in which they were used. Platelets were left to rest for 45 minutes and supplemented with 1.8mM calcium chloride prior to use.
(§2) A platelet concentration of 3x10^5 /μl was used when performing standard aggregations and a concentration of 1x10^6 /μl was used for sample preparation for western blot analysis. The extent of platelet aggregation was measured by quantifying the optical density of the samples using the Bio-Data PAP-8 aggregometer (platelet aggregation profiler, Horsham, PA, USA). A temperature of 37°C was maintained and samples were stirred using magnets spinning at 1100 rpm. 200 μl of washed platelets was added to each aggregation tube. Different volumes of buffer, peptide and TRAP were added to achieve the desired concentrations. Peptide/buffer was added to each well after two minutes. TRAP, with a final concentration depending on the experiment, was added 6 minutes later and data was collected for an additional 7 minutes.

TRAP-activated platelets = experiment: Inhibition of TRAP-induced platelet aggregation after pre-incubation with peptide; type: cell-based, human (healthy volunteers); conditions: for Summary of effects of SDC4-derived palmitylated peptides and scrambled controls, 20μM: S2 Table B / S2 Fig, activation of resting platelets and inhibition of aggregation induced by 4 μM TRAP, in words; for Inhibition, donor 20_08_13: replicate 20_08_13; for Aggregation (inhibition effects of syndecan-derived peptides): S2 Table A, n=6; for Inhibition, donor 14_06_13: replicate 14_06_13; for Inhibition, donor 18_06_13: replicate 18_06_13; for Inhibition, donor 20_06_13: replicate 20_06_13; for Aggregation after TRAP activation, donor h: replicate donor h; for Aggregation after TRAP activation, donor h / Aggregation after TRAP activation, donor i / Aggregation after TRAP activation, donor j: pal 20 μM, tat 50 μM; for Aggregation after TRAP activation, donor i: replicate donor i; for Aggregation after TRAP activation, donor j: replicate donor j
Experimental: as §1, §2

[1] = replicate 22_08_13_DONOR1, peptide 20 μM, TRAP 4 μM
[2] = replicate 22_08_13_DONOR2, peptide 20 μM, TRAP 4 μM
[3] = platelet aggregation induced by 4 μM TRAP in platelets pre-incubated with peptide (low value = inhibition), pal-peptides 20 μM, tat-peptides 50 μM, mean, n>=3
[4] = S3 Table, peptide 5 μM, aggregation after TRAP, n=3
[5] = S3 Table, peptide 20 μM, aggregation after TRAP, n=3

Row | Substance | Activation, donor 20 08 13 (resting platelets) [%] | Activation, donor 22_08_13_DONOR1 (resting platelets) | Activation, donor 22_08_13_DONOR2 (resting platelets) | Summary of effects of SDC4-derived palmitylated peptides and scrambled controls, 20μM (TRAP-activated platelets) | Inhibition, donor 20_08_13 (TRAP-activated platelets; peptide 20 μM, TRAP 4 μM) | Platelet aggregation remaining after TRAP (low = inhibition) (TRAP-activated platelets; [1]) | Platelet aggregation remaining after TRAP (low = inhibition) (TRAP-activated platelets; [2]) | Activation, 20μM (resting platelets) [%] | Activation (resting platelets) [%] | Activation, donor 14 06 13 (resting platelets) [%] | Activation, donor 18_06_13 (resting platelets) | Activation, donor 20_06_13 (resting platelets) | Aggregation before TRAP activation, donor h (resting platelets) | Aggregation before TRAP activation, donor i (resting platelets) | Aggregation before TRAP activation, donor j (resting platelets) | Aggregation (inhibition effects of syndecan-derived peptides) (TRAP-activated platelets; peptide 20 μM, TRAP 4 μM, mean) | Inhibition, donor 14_06_13 (TRAP-activated platelets; peptide 20 μM, TRAP 4 μM) | Inhibition, donor 18_06_13 (TRAP-activated platelets; peptide 20 μM, TRAP 4 μM) | Inhibition, donor 20_06_13 (TRAP-activated platelets; peptide 20 μM, TRAP 4 μM) | Aggregation after TRAP activation, donor h (TRAP-activated platelets; TRAP 4 μM) | other results
1 | MGYRKEDKDKS [pal-SDC4_JM Control 2, scrambled control of pal-SDC4_JM, reference compound] | 2 | 1 | 2 | Inhibitor | 4 | 3 | 14 |  |  |  |  |  |  |  |  |  |  |  |  |  | 
2 | pal-LGKKPIYKK-(NH2) [pal-SDC4_middle, N-terminally palmitylated syndecan-4 middle (variable) region peptide] | 0 | 1 | 0 | Inhibitor | 7 | 3 | 14 | 1 | 0 | 1 | -1 | 2 | 1 | 0 | 1 | 26 | 60 | 23 | 51 | 3 | Activation, 5μM (resting platelets; listed as A8p SDC4-middle): 2%; Activation, 5μM (resting platelets; listed as Variable (B)): 1%; Platelet aggregation remaining after TRAP (low = inhibition) (TRAP-activated platelets; S3 Table, peptide 5 μM, aggregation after TRAP, n=3, listed as A8p SDC4-middle): 72; Platelet aggregation remaining after TRAP (low = inhibition) (TRAP-activated platelets; S3 Table, peptide 5 μM, aggregation after TRAP, n=3, listed as Variable (B)): 59; Platelet aggregation remaining after TRAP (low = inhibition) (TRAP-activated platelets; S3 Table, peptide 20 μM, aggregation after TRAP, n=3, listed as A8p SDC4-middle): 41; Platelet aggregation remaining after TRAP (low = inhibition) (TRAP-activated platelets; S3 Table, peptide 20 μM, aggregation after TRAP, n=3, listed as Variable (B)): 26; Aggregation after TRAP, peptide alone 1x (A 1x / B 1x) (TRAP-activated platelets; TRAP 2 μM after 6 minutes pre-incubation, 4 μM pal-peptides, 10 μM tat-peptides, mean n = 3): 31.67; Aggregation after TRAP, peptide alone 2x (A 2x / B 2x) (TRAP-activated platelets; TRAP 2 μM after 6 minutes pre-incubation, double concentration of 4 μM (pal) / 10 μM (tat), mean n = 3): 1.67; Platelet aggregation after TRAP activation (TRAP-activated platelets; [3]): 3 ^*; Aggregation after TRAP activation, donor i (TRAP-activated platelets; TRAP 4 μM): 2; Aggregation after TRAP activation, donor j (TRAP-activated platelets; TRAP 4 μM): 4
3 | Pal-RMKKKDEGSYD-LGKKPIYKK [pal-SDC4-JM U SDC4-middle, palmitylated chimeric peptide of SDC4 juxtamembrane and middle regions] | 6 | 6 | 7 |  | 12 | 8 | 14 | 4 |  | 0 | 2 | 1 |  |  |  | 19 | 26 | 9 | 47 |  | Activation, 5μM (resting platelets): 2%; Platelet aggregation remaining after TRAP (low = inhibition) (TRAP-activated platelets; [4]): 61; Platelet aggregation remaining after TRAP (low = inhibition) (TRAP-activated platelets; [5]): 19
4 | Pal-LGKKPIYKK-APTNEFYA [pal-SDC4-middle U SDC4-tail, palmitylated chimeric peptide of SDC4 middle and tail regions] | 4 | 1 | 4 |  | 6 | 2 | 6 | 2 |  | 3 | 3 | -2 |  |  |  | 5 | 5 | 5 | 7 |  | Activation, 5μM (resting platelets): 3%; Platelet aggregation remaining after TRAP (low = inhibition) (TRAP-activated platelets; [4]): 63; Platelet aggregation remaining after TRAP (low = inhibition) (TRAP-activated platelets; [5]): 5
5 | tat-AGAKLRKVSKQE-(NH2) [tat-VASP, tat peptide from VASP] |  |  |  |  |  |  |  |  | 3 |  |  |  | 3 | 3 | 3 |  |  |  |  | 75 | Platelet aggregation remaining after TRAP (low = inhibition) (TRAP-activated platelets; [3]): 74; Aggregation after TRAP activation, donor i (TRAP-activated platelets; TRAP 4 μM): 71; Aggregation after TRAP activation, donor j (TRAP-activated platelets; TRAP 4 μM): 76

Source: paper PMC6349357, “Computational and experimental analysis of bioactive peptide linear motifs in the integrin adhesome” (PLoS ONE, 2019)
